# Values joined by “and” are separate entries in the source; they are usually repeats but may differ in a detail not shown here. Identical values can stand only once.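 Test compounds were applied to cells in 96-well plates for 48 hours at 5 doses. Here, GI50 denotes the concentration required for 50% inhibition of growth. TGI marks complete inhibition of growth.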
# Tested on: MDA-MB-468 breast
# Assay: DTP human tumour cell line panel, 48 h
SMILES,GI50,TGI
C#C[C@]1(O)CC[C@H]2[C@@H]3CC=C4c5sc(Nc6ccccc6)nc5CC[C@]4(C)[C@H]3CC[C@@]21C,1710 nM,4250 nM
NC(=O)C(=CNc1nc(-c2ccc(Cl)c(Cl)c2)cs1)C(N)=O,> 100000 nM,> 100000 nM
O=C(Nc1ccc(Cl)cc1F)c1cc(Br)ccc1O,1130 nM,4450 nM
CCN1C(=O)N(CC)C2C1NC(=S)N2/N=C/C=C/c1cccs1 (stereo not drawn),198 nM,–
CCN(CC)CCOc1ccc(/C(=C(\C)c2ccc(F)c(OC)c2)c2ccc(Cl)cc2)cc1,1910 nM,4230 nM
O=C(Nc1cccc(Cl)c1)c1cc2ccccc2cc1O,2200 nM and 1910 nM,10400 nM and 6670 nM
COc1cc2cn3c4ccc(O)cc4[nH]c(=O)c3c2cc1OC,20 nM,56.8 nM
Cc1ccc(N(CSc2ccc(Cl)cc2)CSc2ccc(Cl)cc2)cc1,1910 nM,6230 nM
CCCCCc1c(C)[nH]c(/C=C2\N=C(c3ccc[nH]3)C=C2CC)c1C,21.5 nM,90.4 nM
Cc1cc(NC(=O)c2ccc(C)c(Nc3nccc(-c4cccnc4)n3)c2)cc(-n2cnc(C)c2)c1,1220 nM,3270 nM
O=c1[nH]c2cc(Cl)ccc2n1C1CCN(CCCC(c2ccc(F)cc2)c2ccc(F)cc2)CC1,1650 nM,3140 nM
CC(=O)Oc1ccc(Nc2c3ccccc3nc3ccccc23)cc1,913 nM,3010 nM
Cc1sc2nc(NCCc3c[nH]c4ccc(Cl)cc34)[nH]c(=O)c2c1C,2130 nM,4680 nM
CCc1cccc2c3c(sc12)C(c1ccc(Cl)cc1)C(C#N)=C(/N=C/c1ccc(Cl)cc1)O3 (stereo not drawn),565 nM,2460 nM
N#CC1(C2SCCS2=O)C2=C(C(=O)c3ccccc3C2=O)N2CCCC21 (stereo not drawn),467 nM,1900 nM
CC(=O)Oc1ccccc1C(=O)N=C1[Se]CCCN1C(=O)c1ccccc1OC(C)=O,3380 nM,10900 nM
COc1ccc(CNc2c3ccccc3nc3ccccc23)cc1OC,1580 nM,4140 nM
O=C(CCCN1CC=C(n2c(=O)[nH]c3ccccc32)CC1)c1ccc(F)cc1,18800 nM,59500 nM
Nc1nc(Br)nc2c1ncn2C1CC(O)C(CO)O1 (stereo not drawn),> 100000 nM,> 100000 nM

SMILES,GI50,TGI
CC(=O)O[C@@H]1C[C@]2(C(C)C)O[C@@]1(C)[C@@H]1CCC(C)=C1[C@@H]2OC(=O)/C=C/c1ccccc1,24200 nM,> 100000 nM
O=C(CN(C1CCCCC1)C1CCCCC1)Nc1ccc(S(=O)(=O)c2ccc(NC(=O)CN(C3CCCCC3)C3CCCCC3)cc2)cc1,1040 nM,2930 nM
Cc1ccc(Nc2nc(N)c(C(=O)c3ccc(C#N)cc3)s2)cc1,229 nM,663 nM
COC(=O)[C@@H](NC(=O)[C@@H](OC)[C@@H]1Cc2cc3cc(OC4CC(OC5CC(O)C(O)C(C)O5)C(O)C(C)O4)c(C)c(O)c3c(O)c2C(=O)[C@H]1OC1CC(OC2CC(OC3CC(C)(O)C(O)C(C)O3)C(O)C(C)O2)C(O)C(C)O1)C(C)C (stereo partly drawn),131 nM,2600 nM
CN(C)c1ccc2nc3ccc(=O)cc-3sc2c1,1490 nM,6990 nM
Cc1c(C2Nc3ccccc3C2C)[nH]c2ccccc12 (stereo not drawn),10400 nM,27800 nM
CCN(CC)CC(C)(C)C(=O)/C=C/c1ccc(Cl)c(Cl)c1,1690 nM,3420 nM
Nc1nc(Nc2ccccc2)c2ncn(Cc3cc4c(cc3Br)OCO4)c2n1,< 10 nM,18200 nM
CC(=O)Oc1ccccc1C(=O)N=C1[Se]CCN1C(=O)c1ccccc1OC(C)=O,740 nM,2670 nM
CN1CCc2c(Sc3ccc(C(=O)NO)cc3)c3ccccc3n2C1,1120 nM,2920 nM
Cc1[nH]n(-c2cccc(Cl)c2)c(=O)c1/C=C1\C=Nc2ccc(Br)cc21,3970 nM,29200 nM
O=C1/C(=C\c2cccn2Cc2ccccc2)c2ccccc2N1c1c(Cl)cccc1Cl,118 nM,463 nM
Cc1c[n+](Cc2ccc3ccccc3c2)cn1Cc1ccc2ccccc2c1,362 nM,1350 nM
O=C(N/N=C\c1cc(Br)ccc1O)c1ccncc1,1070 nM,5510 nM
Cc1n(Cc2ccc3ccccc3c2)cc[n+]1Cc1ccc2ccccc2c1,252 nM,819 nM
c1ccc2c3ccn4cc5c(cc4c-3nc2c1)CCCC5,1390 nM,3600 nM
C#CC(=O)Nc1cccc(Nc2nc3c(c(NCc4ccccc4)n2)CCCC3)c1,168 nM,573 nM
Cc1ccc2c(n1)C(=O)C(Cl)=C(Nc1ccc(C(F)(F)F)cc1)C2=O,1890 nM,4000 nM
